{"source": "ChEMBL document CHEMBL5370648", "about": "“Rational Design of Bioorthogonally Activatable PROTAC for Tumor-Targeted Protein Degradation” (J Med Chem, 2023)", "key": {"[1]": {"target": "T1, von Hippel-Lindau disease tumor suppressor/Bromodomain-containing protein 4 (Homo sapiens, UniProt O60885+P40337)", "T1 sequence (P40337 whole entry, looked up, other chains not shown)": "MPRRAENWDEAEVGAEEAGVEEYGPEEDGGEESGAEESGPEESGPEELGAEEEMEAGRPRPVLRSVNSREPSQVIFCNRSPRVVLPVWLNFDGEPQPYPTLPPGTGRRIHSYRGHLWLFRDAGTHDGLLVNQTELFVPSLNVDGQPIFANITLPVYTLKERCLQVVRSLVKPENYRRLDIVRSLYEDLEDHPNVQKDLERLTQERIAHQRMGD", "experiment": "PROTAC activity at BRD4/VHL E3 ligase in human MDA-MB-231 cells assessed as induction of degradation of intracellular BRD4 at 200 nM incubated for 48 hrs by immunofluorescence staining assay", "type": "cell-based"}, "MDA-MB-231 [2]": {"system": "MDA-MB-231", "experiment": "Cytotoxicity against human MDA-MB-231 cells assessed as inhbition of cell growth measured after 48 hrs by CCK-8 method", "type": "functional, cell-based", "conditions": "MDA-MB-231, 48 h"}, "[3]": {"target": "T1, von Hippel-Lindau disease tumor suppressor/Bromodomain-containing protein 4", "experiment": "PROTAC activity at BRD4/VHL E3 ligase in human T47D cells assessed as induction of degradation of BRD4 at upto 1000 nM incubated for 48 hrs in presence of MG132 by immunofluorescence staining assay", "type": "cell-based"}, "[4]": {"target": "T1, von Hippel-Lindau disease tumor suppressor/Bromodomain-containing protein 4", "experiment": "PROTAC activity at BRD4/VHL E3 ligase in human MCF7 cells assessed as activation of caspase-3 expression incubated for 48 hrs by Western blot analysis", "type": "cell-based"}, "MCF7 [5]": {"system": "MCF7", "experiment": "Antitumor activity against human MCF7 cells xenografted in BALB/c nude mouse assessed as fold increase in tumor volume at 10 mg/kg measured at day 23 post injection", "type": "functional", "conditions": "time 23 day"}, "[6]": {"target": "T1, von Hippel-Lindau disease tumor suppressor/Bromodomain-containing protein 4", "experiment": "PROTAC activity at BRD4/VHL E3 ligase in human T47D cells assessed as activation of caspase-3 expression incubated for 48 hrs by Western blot analysis", "type": "cell-based"}, "[7]": {"target": "T1, von Hippel-Lindau disease tumor suppressor/Bromodomain-containing protein 4", "experiment": "PROTAC activity at BRD4/VHL E3 ligase in human MCF7 cells assessed as degradation of BRD4 expression incubated for 48 hrs by Western blot analysis", "type": "cell-based"}, "[8]": {"target": "T1, von Hippel-Lindau disease tumor suppressor/Bromodomain-containing protein 4", "experiment": "PROTAC activity at BRD4/VHL E3 ligase in human MCF7 cells assessed as induction of degradation of intracellular BRD4 at 200 nM incubated for 48 hrs by immunofluorescence staining assay", "type": "cell-based"}, "MCF7 [9]": {"system": "MCF7", "experiment": "Antitumor activity against human MCF7 cells xenografted in BALB/c nude mouse model assessed as inhibition of tumor cell proliferation by measuring reduction in Ki67 staining at 10 mg/kg administered for 16 days by immunohistochemical analysis", "type": "functional, organism-based", "conditions": "time 16.0 day"}, "[10]": {"target": "T1, von Hippel-Lindau disease tumor suppressor/Bromodomain-containing protein 4", "experiment": "PROTAC activity at BRD4/VHL E3 ligase in human MDA-MB-231 cells assessed as suppression of c-Myc expression incubated for 48 hrs by Western blot analysis", "type": "cell-based"}, "MCF7 [11]": {"system": "MCF7", "experiment": "Antitumor activity against human MCF7 cells xenografted in BALB/c nude mouse assessed as tumor growth inhibition at 10 mg/kg measured after 16 days", "type": "functional, organism-based", "conditions": "time 16.0 day"}, "MCF7 [12]": {"system": "MCF7", "experiment": "Cytotoxicity against human MCF7 cells assessed as inhbition of cell growth measured after 48 hrs by CCK-8 method", "type": "functional, cell-based", "conditions": "MCF7, 48 h"}, "[13]": {"experiment": "Retention time of the compound by HPLC method", "type": "physicochemical"}, "T47D [14]": {"system": "T47D", "experiment": "Cytotoxicity against human T47D cells assessed as inhbition of cell growth measured after 48 hrs by CCK-8 method", "type": "functional, cell-based"}, "[15]": {"target": "T1, von Hippel-Lindau disease tumor suppressor/Bromodomain-containing protein 4", "experiment": "PROTAC activity at BRD4/VHL E3 ligase in human MCF7 cells assessed as suppression of c-Myc expression incubated for 48 hrs by Western blot analysis", "type": "cell-based"}, "MCF7 [16]": {"system": "MCF7", "experiment": "Antitumor activity against human MCF7 cells xenografted in BALB/c nude mouse assessed as apoptosis at 10 mg/kg measured after 48 hrs by Western blot analysis", "type": "functional, organism-based"}, "[17]": {"target": "T1, von Hippel-Lindau disease tumor suppressor/Bromodomain-containing protein 4", "experiment": "PROTAC activity at BRD4/VHL E3 ligase in human T47D cells assessed as suppression of c-Myc expression incubated for 48 hrs by Western blot analysis", "type": "cell-based"}, "[18]": {"target": "T1, von Hippel-Lindau disease tumor suppressor/Bromodomain-containing protein 4", "experiment": "PROTAC activity at BRD4/VHL E3 ligase in human T47D cells assessed as induction of degradation of intracellular BRD4 at 200 nM incubated for 48 hrs by immunofluorescence staining assay", "type": "cell-based"}, "[19]": {"target": "T1, von Hippel-Lindau disease tumor suppressor/Bromodomain-containing protein 4", "experiment": "PROTAC activity at BRD4/VHL E3 ligase in human T47D cells assessed as induction of degradation of BRD4 at upto 1000 nM incubated for 48 hrs in presence of MLN4924 by immunofluorescence staining assay", "type": "cell-based"}, "[20]": {"experiment": "Toxicity in BALB/c nude mouse assessed as animal death at 10 mg/kg measured after 16 days", "type": "organism-based", "conditions": "in vivo, 384 h, time 16 day"}, "[21]": {"target": "T1, von Hippel-Lindau disease tumor suppressor/Bromodomain-containing protein 4", "experiment": "In vivo PROTAC activity at BRD4/VHL E3 ligase in BALB/c nude mouse xenografted with human MCF7 cells assessed as reduction in BRD4 protein level in tumor 10 mg/kg measured after 48 hrs by Western blot analysis", "type": "functional, organism-based"}, "[22]": {"target": "T1, von Hippel-Lindau disease tumor suppressor/Bromodomain-containing protein 4", "experiment": "PROTAC activity at BRD4/VHL E3 ligase in human MCF7 cells assessed as decrease in BRD4 expression incubated for 48 hrs by Western blot analysis", "type": "cell-based"}, "[23]": {"target": "T1, von Hippel-Lindau disease tumor suppressor/Bromodomain-containing protein 4", "experiment": "PROTAC activity at BRD4/VHL E3 ligase in human MDA-MB-231 cells assessed as decrease in BRD4 expression incubated for 48 hrs by Western blot analysis", "type": "cell-based"}, "[24]": {"target": "T1, von Hippel-Lindau disease tumor suppressor/Bromodomain-containing protein 4", "experiment": "PROTAC activity at BRD4/VHL E3 ligase in human T47D cells assessed as decrease in BRD4 expression incubated for 48 hrs by Western blot analysis", "type": "cell-based"}, "[25]": {"target": "T1, von Hippel-Lindau disease tumor suppressor/Bromodomain-containing protein 4", "experiment": "PROTAC activity at BRD4/VHL E3 ligase in human T47D cells assessed as degradation of BRD4 expression incubated for 48 hrs by Western blot analysis", "type": "cell-based"}, "[26]": {"target": "T1, von Hippel-Lindau disease tumor suppressor/Bromodomain-containing protein 4", "experiment": "PROTAC activity at BRD4/VHL E3 ligase in human MDA-MB-231 cells assessed as degradation of BRD4 expression incubated for 48 hrs by Western blot analysis", "type": "cell-based"}, "[27]": {"target": "T1, von Hippel-Lindau disease tumor suppressor/Bromodomain-containing protein 4", "experiment": "PROTAC activity at BRD4/VHL E3 ligase in human MDA-MB-231 cells assessed as activation of caspase-3 expression incubated for 48 hrs by Western blot analysis", "type": "cell-based"}, "T47D [28]": {"system": "T47D", "experiment": "Cytotoxicity against human T47D cells assessed as inhbition of cell growth at 20.0 uM measured after 48 hrs by CCK-8 method", "type": "functional, cell-based"}, "MDA-MB-231 [29]": {"system": "MDA-MB-231", "experiment": "Cytotoxicity against human MDA-MB-231 cells assessed as inhbition of cell growth at 20.0 uM measured after 48 hrs by CCK-8 method", "type": "functional, cell-based"}}, "note": "pEC50, pIC50: −log10 of the molar value. Calls of active or inactive are those of the source. The rule behind the calls is not given here.", "data": [{"smiles": "Cc1ncsc1-c1ccc([C@H](C)NC(=O)[C@@H]2C[C@@H](O)CN2C(=O)[C@@H](NC(=O)COCCOCCOCCNC(=O)CC2N=C(c3ccc(Cl)cc3)c3c(sc(C)c3C)-n3c(C)nnc32)C(C)(C)C)cc1", "note": "(stereo not given in full)", "values": [{"measurement": "Activity", "setting": "[1]", "result": "Active"}, {"measurement": "pIC50", "setting": "MDA-MB-231 [2]", "result": 6.65}, {"measurement": "Activity", "setting": "[3]", "result": "inactive"}, {"measurement": "Activity", "setting": "[4]", "result": "Active"}, {"measurement": "fold change (FC)", "setting": "MCF7 [5]", "result": 1.58}, {"measurement": "Activity", "setting": "[6]", "result": "Active"}, {"measurement": "Activity", "setting": "[7]", "result": "Active"}, {"measurement": "Activity", "setting": "[8]", "result": "Active"}, {"measurement": "Activity", "setting": "MCF7 [9]", "result": "Active"}, {"measurement": "Activity", "setting": "[10]", "result": "Active"}, {"measurement": "Activity", "setting": "MCF7 [11]", "result": "Active"}, {"measurement": "pIC50", "setting": "MCF7 [12]", "result": 6.74}, {"measurement": "Retention_time", "setting": "[13]", "result": 18.96, "unit": "min"}, {"measurement": "pIC50", "setting": "T47D [14]", "result": 6.60}, {"measurement": "Activity", "setting": "[15]", "result": "Active"}, {"measurement": "Activity", "setting": "MCF7 [16]", "result": "Active"}, {"measurement": "Activity", "setting": "[17]", "result": "Active"}, {"measurement": "Activity", "setting": "[18]", "result": "Active"}, {"measurement": "Activity", "setting": "[19]", "result": "inactive"}, {"measurement": "Activity", "setting": "[20]", "result": "Toxic"}, {"measurement": "Activity", "setting": "[21]", "result": "Active"}, {"measurement": "pEC50", "setting": "[22]", "result": 7.30}, {"measurement": "pEC50", "setting": "[23]", "result": 8.40}, {"measurement": "pEC50", "setting": "[24]", "result": 7.25}, {"measurement": "Activity", "setting": "[25]", "result": "Active"}, {"measurement": "Activity", "setting": "[26]", "result": "Active"}, {"measurement": "Activity", "setting": "[27]", "result": "Active"}]}, {"smiles": "Cc1ncsc1-c1ccc([C@H](C)NC(=O)[C@@H]2C[C@@H](OC(=O)OC3/C=C/CCCCC3)CN2C(=O)[C@@H](NC(=O)COCCOCCOCCNC(=O)CC2N=C(c3ccc(Cl)cc3)c3c(sc(C)c3C)-n3c(C)nnc32)C(C)(C)C)cc1", "note": "(stereo not given in full)", "values": [{"measurement": "Retention_time", "setting": "[13]", "result": 19.3, "unit": "min"}, {"measurement": "Activity", "setting": "T47D [28]", "result": "inactive"}, {"measurement": "Activity", "setting": "MDA-MB-231 [29]", "result": "inactive"}]}]}
